Values quoted from earlier work in US5556638A, “Flurbiprofen-containing immediate-effect medicament and its use” (Alfatec Pharma GMBH, priority 1991, dated 1996).

Key:
[1] = prior art
[2] = racemate
pain = conditions: optical antipodes of flurbiprofen
inflammation = conditions: optical antipodes of flurbiprofen

What does the source list for `CC(C(=O)O)c1ccc(-c2ccccc2)c(F)c1` (racemic) [Racemic flurbiprofen]?
time until therapeutic concentrations are achieved ([1]; racemic flurbiprofen): 4 to 5 h; tmax ([1]; racemic flurbiprofen, blood level maximum): 1 to 2 h; undesirable side effects [2]: significant undesirable side effects

Which analgesic action (pain) does the source give for `C[C@@H](C(=O)O)c1ccc(-c2ccccc2)c(F)c1` [R-flurbiprofen] here?
Its analgesic action is “pronounced analgesic action”.

With `C[C@H](C(=O)O)c1ccc(-c2ccccc2)c(F)c1` [S-flurbiprofen] as the compound, how does the anti-inflammatory action (inflammation) read?
Its anti-inflammatory action is “marked anti-inflammatory action”.

For `CC(C(=O)O)c1ccc(-c2ccccc2)c(F)c1` (stereo not drawn) [flurbiprofen, 2-(2-fluoro-4-biphenylyl)propionic acid], which site of absorption ([1]; oral) is on record?
The site of absorption was “only absorbed in the upper small intestine”.
